# Earlier results, collected in patent US8846662B2, “Benzodiazepine and/or pharmaceutical composition comprising benzodiazepine derivatives” (Dr. Franz Koehler Chemie GmbH, priority 2008, dated 2014).
# Test system: specific binding sites in the central nervous system
# Conditions: background statement
row,SMILES,Affinity for specific binding sites in the central nervous system
1,"CN1C(=O)C(O)N=C(c2ccccc2Cl)c2cc(Cl)ccc21 (centres unmarked) [Lormetazepam, 9-chloro-6-(2-chlorophenyl)-4-hydroxy-2-methyl-2,5-diazabicyclo-[5.4.0]undeca-5,8,10,12-tetraen-3-one]",very high affinity
2,"O=C1Nc2ccc(Cl)cc2C(c2ccccc2Cl)=NC1O (centres unmarked) [Lorazepam, 7-chloro-5-(o-chlorophenyl)-1,3-dihydro-3-hydroxy-2H-1,4-benzodiazepin-2-one]",very high affinity
